# Assay results: the NIST ThermoML archive (doi:10.1016/j.jct.2012.01.023)
# ± gives the expanded uncertainty stated by the source.
# Experiments:
# [1] = xn = mol fraction of the nth substance listed; conditions: 298.15 K, Drop volume
# [2] = for mass density: 298.1 K, 101.33 kPa, Liquid, Vibrating tube method; for surface tension liquid-gas: 298.15 K, Drop volume
structure (smiles),measurement,setting,value
CCOS(=O)(=O)[O-].CCn1cc[n+](C)c1 [1-ethyl-3-methylimidazolium ethyl sulfate] + O,surface tension liquid-gas,[1]; x1 = 0.005,67.23 ± 0.33 mN/m
same,surface tension liquid-gas,[1]; x1 = 0.0199,62.42 ± 0.31 mN/m
same,surface tension liquid-gas,[1]; x1 = 0.0402,59.68 ± 0.31 mN/m
same,surface tension liquid-gas,[1]; x1 = 0.06,57.64 ± 0.3 mN/m
same,surface tension liquid-gas,[1]; x1 = 0.1006,55.64 ± 0.3 mN/m
same,surface tension liquid-gas,[1]; x1 = 0.202,52.23 ± 0.3 mN/m
same,surface tension liquid-gas,[1]; x1 = 0.3017,50.45 ± 0.3 mN/m
same,surface tension liquid-gas,[1]; x1 = 0.4046,49.42 ± 0.31 mN/m
same,surface tension liquid-gas,[1]; x1 = 0.5026,48.79 ± 0.31 mN/m
same,surface tension liquid-gas,[1]; x1 = 0.6066,48.3 ± 0.32 mN/m
same,surface tension liquid-gas,[1]; x1 = 0.6957,47.94 ± 0.33 mN/m
same,surface tension liquid-gas,[1]; x1 = 0.7939,47.72 ± 0.34 mN/m
same,surface tension liquid-gas,[1]; x1 = 0.9041,47.39 ± 0.35 mN/m
same,surface tension liquid-gas,[1]; x1 = 1,47.16 ± 0.36 mN/m
CCCCCCCCOS(=O)(=O)[O-].CCn1cc[n+](C)c1 [1-ethyl-3-methylimidazolium octyl sulfate] + O,surface tension liquid-gas,[1]; x1 = 0.0002,56.92 ± 0.85 mN/m
same,surface tension liquid-gas,[1]; x1 = 0.0007,42.45 ± 0.34 mN/m
same,surface tension liquid-gas,[1]; x1 = 0.005,37.84 ± 0.28 mN/m
same,surface tension liquid-gas,[1]; x1 = 0.011,37.19 ± 0.26 mN/m
same,surface tension liquid-gas,[1]; x1 = 0.0198,36.69 ± 0.26 mN/m
same,surface tension liquid-gas,[1]; x1 = 0.0349,35.3 ± 0.26 mN/m
same,surface tension liquid-gas,[1]; x1 = 0.0506,34.96 ± 0.26 mN/m
same,surface tension liquid-gas,[1]; x1 = 0.0774,33.87 ± 0.26 mN/m
same,surface tension liquid-gas,[1]; x1 = 0.0937,33.62 ± 0.26 mN/m
same,surface tension liquid-gas,[1]; x1 = 0.2846,31.01 ± 0.27 mN/m
same,surface tension liquid-gas,[1]; x1 = 0.4,30.48 ± 0.28 mN/m
same,surface tension liquid-gas,[1]; x1 = 0.5127,30.72 ± 0.3 mN/m
same,surface tension liquid-gas,[1]; x1 = 0.5677,30.67 ± 0.31 mN/m
same,surface tension liquid-gas,[1]; x1 = 0.6347,30.71 ± 0.32 mN/m
same,surface tension liquid-gas,[1]; x1 = 0.6934,30.74 ± 0.33 mN/m
same,surface tension liquid-gas,[1]; x1 = 0.7018,30.77 ± 0.34 mN/m
same,surface tension liquid-gas,[1]; x1 = 0.7373,30.7 ± 0.34 mN/m
same,surface tension liquid-gas,[1]; x1 = 0.766,30.81 ± 0.35 mN/m
same,surface tension liquid-gas,[1]; x1 = 0.8287,30.71 ± 0.36 mN/m
same,surface tension liquid-gas,[1]; x1 = 0.8904,30.79 ± 0.37 mN/m
same,surface tension liquid-gas,[1]; x1 = 1,30.91 ± 0.4 mN/m
CCCCCCOS(=O)(=O)[O-].CC[n+]1ccn(C)c1 [3-ethyl-1-methyl-1H-imidazolium hexyl sulfate] + O,surface tension liquid-gas,[1]; x1 = 0.0005,62.58 ± 0.96 mN/m
same,surface tension liquid-gas,[1]; x1 = 0.0008,58.45 ± 0.83 mN/m
same,surface tension liquid-gas,[1]; x1 = 0.002,49.54 ± 0.9 mN/m
same,surface tension liquid-gas,[1]; x1 = 0.005,42.13 ± 0.56 mN/m
same,surface tension liquid-gas,[1]; x1 = 0.0196,40.27 ± 0.27 mN/m
same,surface tension liquid-gas,[1]; x1 = 0.0396,39.55 ± 0.27 mN/m
same,surface tension liquid-gas,[1]; x1 = 0.0602,38.88 ± 0.27 mN/m
same,surface tension liquid-gas,[1]; x1 = 0.0797,38.25 ± 0.27 mN/m
same,surface tension liquid-gas,[1]; x1 = 0.0997,37.79 ± 0.27 mN/m
same,surface tension liquid-gas,[1]; x1 = 0.1997,36.16 ± 0.28 mN/m
same,surface tension liquid-gas,[1]; x1 = 0.3009,35.59 ± 0.29 mN/m
same,surface tension liquid-gas,[1]; x1 = 0.4034,35.25 ± 0.3 mN/m
same,surface tension liquid-gas,[1]; x1 = 0.4957,35.05 ± 0.32 mN/m
same,surface tension liquid-gas,[1]; x1 = 0.5943,34.95 ± 0.34 mN/m
same,surface tension liquid-gas,[1]; x1 = 0.705,34.87 ± 0.36 mN/m
same,surface tension liquid-gas,[1]; x1 = 0.7893,34.82 ± 0.38 mN/m
same,surface tension liquid-gas,[1]; x1 = 0.8997,34.77 ± 0.41 mN/m
same,surface tension liquid-gas,[1]; x1 = 1,34.77 ± 0.43 mN/m
CCCCOS(=O)(=O)[O-].CC[n+]1ccn(C)c1 [3-ethyl-1-methylimidazolium butyl sulfate] + CCO,surface tension liquid-gas,[1]; x1 = 0.066,23.6 ± 0.25 mN/m
same,surface tension liquid-gas,[1]; x1 = 0.1347,25.01 ± 0.26 mN/m
same,surface tension liquid-gas,[1]; x1 = 0.1536,25.36 ± 0.26 mN/m
same,surface tension liquid-gas,[1]; x1 = 0.2904,27.76 ± 0.28 mN/m
same,surface tension liquid-gas,[1]; x1 = 0.4691,30.63 ± 0.31 mN/m
same,surface tension liquid-gas,[1]; x1 = 0.4993,31.05 ± 0.32 mN/m
same,surface tension liquid-gas,[1]; x1 = 0.6866,33.99 ± 0.36 mN/m
same,surface tension liquid-gas,[1]; x1 = 0.7916,35.75 ± 0.4 mN/m
same,surface tension liquid-gas,[1]; x1 = 0.8794,37.35 ± 0.43 mN/m
same,surface tension liquid-gas,[1]; x1 = 1,39.62 ± 0.47 mN/m
CCCCCCCCOS(=O)(=O)[O-].CCn1cc[n+](C)c1 [1-ethyl-3-methylimidazolium octyl sulfate],mass density,[2],1093.75 ± 1.4 kg/m3
same,surface tension liquid-gas,[2],31.29 ± 0.4 mN/m
O [water] + CCOS(=O)(=O)[O-].CCn1cc[n+](C)c1,surface tension liquid-gas,[1]; x2 = 0,71.35 ± 0.33 mN/m
CCOS(=O)(=O)[O-].CCn1cc[n+](C)c1 [1-ethyl-3-methylimidazolium ethyl sulfate],mass density,[2],1238.3 ± 1.1 kg/m3
same,surface tension liquid-gas,[2],47.13 ± 0.36 mN/m
CCCCOS(=O)(=O)[O-].CC[n+]1ccn(C)c1 [3-ethyl-1-methylimidazolium butyl sulfate] + O,surface tension liquid-gas,[1]; x1 = 0.0389,44.48 ± 0.35 mN/m
same,surface tension liquid-gas,[1]; x1 = 0.0403,45.93 ± 0.35 mN/m
same,surface tension liquid-gas,[1]; x1 = 0.0579,40.83 ± 0.28 mN/m
same,surface tension liquid-gas,[1]; x1 = 0.0602,41.7 ± 0.28 mN/m
same,surface tension liquid-gas,[1]; x1 = 0.0758,39.85 ± 0.27 mN/m
same,surface tension liquid-gas,[1]; x1 = 0.0805,39.96 ± 0.27 mN/m
same,surface tension liquid-gas,[1]; x1 = 0.0934,39.08 ± 0.27 mN/m
same,surface tension liquid-gas,[1]; x1 = 0.0987,39.17 ± 0.27 mN/m
same,surface tension liquid-gas,[1]; x1 = 0.1004,39.42 ± 0.27 mN/m
same,surface tension liquid-gas,[1]; x1 = 0.101,39.84 ± 0.28 mN/m
same,surface tension liquid-gas,[1]; x1 = 0.12,39.74 ± 0.27 mN/m
same,surface tension liquid-gas,[1]; x1 = 0.133,40.29 ± 0.28 mN/m
same,surface tension liquid-gas,[1]; x1 = 0.1464,40.85 ± 0.28 mN/m
same,surface tension liquid-gas,[1]; x1 = 0.1716,41.83 ± 0.29 mN/m
same,surface tension liquid-gas,[1]; x1 = 0.1947,41.59 ± 0.29 mN/m
same,surface tension liquid-gas,[1]; x1 = 0.2004,41.48 ± 0.29 mN/m
same,surface tension liquid-gas,[1]; x1 = 0.2585,40.83 ± 0.3 mN/m
same,surface tension liquid-gas,[1]; x1 = 0.2973,40.81 ± 0.3 mN/m
same,surface tension liquid-gas,[1]; x1 = 0.3957,40.04 ± 0.32 mN/m
same,surface tension liquid-gas,[1]; x1 = 0.4017,40.31 ± 0.32 mN/m
same,surface tension liquid-gas,[1]; x1 = 0.4764,39.93 ± 0.34 mN/m
same,surface tension liquid-gas,[1]; x1 = 0.4992,40.01 ± 0.34 mN/m
same,surface tension liquid-gas,[1]; x1 = 0.5868,39.89 ± 0.36 mN/m
same,surface tension liquid-gas,[1]; x1 = 0.703,39.82 ± 0.39 mN/m
same,surface tension liquid-gas,[1]; x1 = 0.7997,39.77 ± 0.42 mN/m
same,surface tension liquid-gas,[1]; x1 = 0.9034,39.67 ± 0.45 mN/m
same,surface tension liquid-gas,[1]; x1 = 1,39.62 ± 0.47 mN/m
CCOS(=O)(=O)[O-].CCn1cc[n+](C)c1 [1-ethyl-3-methylimidazolium ethyl sulfate] + CCO,surface tension liquid-gas,[1]; x1 = 0.0988,24.18 ± 0.25 mN/m
same,surface tension liquid-gas,[1]; x1 = 0.2056,26.37 ± 0.25 mN/m
same,surface tension liquid-gas,[1]; x1 = 0.3025,28.52 ± 0.26 mN/m
same,surface tension liquid-gas,[1]; x1 = 0.3989,30.68 ± 0.27 mN/m
same,surface tension liquid-gas,[1]; x1 = 0.4999,32.99 ± 0.28 mN/m
same,surface tension liquid-gas,[1]; x1 = 0.5984,35.4 ± 0.29 mN/m
same,surface tension liquid-gas,[1]; x1 = 0.703,38.12 ± 0.31 mN/m
same,surface tension liquid-gas,[1]; x1 = 0.8252,41.48 ± 0.33 mN/m
same,surface tension liquid-gas,[1]; x1 = 0.9048,43.81 ± 0.34 mN/m
same,surface tension liquid-gas,[1]; x1 = 1,47.16 ± 0.36 mN/m
CCCCCCOS(=O)(=O)[O-].CC[n+]1ccn(C)c1 [3-ethyl-1-methyl-1H-imidazolium hexyl sulfate],mass density,[2],1129.6 ± 1.4 kg/m3
same,surface tension liquid-gas,[2],34.77 ± 0.43 mN/m
CCCCOS(=O)(=O)[O-].CC[n+]1ccn(C)c1 [3-ethyl-1-methylimidazolium butyl sulfate],mass density,[2],1175.65 ± 1.5 kg/m3
same,surface tension liquid-gas,[2],39.64 ± 0.48 mN/m
CCCCCCOS(=O)(=O)[O-].CC[n+]1ccn(C)c1 [3-ethyl-1-methyl-1H-imidazolium hexyl sulfate] + CCO,surface tension liquid-gas,[1]; x1 = 0.03,22.98 ± 0.25 mN/m
same,surface tension liquid-gas,[1]; x1 = 0.0679,23.87 ± 0.25 mN/m
same,surface tension liquid-gas,[1]; x1 = 0.0977,24.48 ± 0.25 mN/m
same,surface tension liquid-gas,[1]; x1 = 0.1253,25 ± 0.25 mN/m
same,surface tension liquid-gas,[1]; x1 = 0.2267,26.53 ± 0.27 mN/m
same,surface tension liquid-gas,[1]; x1 = 0.3138,27.69 ± 0.28 mN/m
same,surface tension liquid-gas,[1]; x1 = 0.386,28.6 ± 0.29 mN/m
same,surface tension liquid-gas,[1]; x1 = 0.4691,29.48 ± 0.3 mN/m
same,surface tension liquid-gas,[1]; x1 = 0.5946,30.86 ± 0.33 mN/m
same,surface tension liquid-gas,[1]; x1 = 0.7189,32.08 ± 0.36 mN/m
same,surface tension liquid-gas,[1]; x1 = 0.7951,32.84 ± 0.37 mN/m
same,surface tension liquid-gas,[1]; x1 = 0.9409,34.31 ± 0.41 mN/m
same,surface tension liquid-gas,[1]; x1 = 1,34.77 ± 0.43 mN/m
CCCCCCCCOS(=O)(=O)[O-].CCn1cc[n+](C)c1 [1-ethyl-3-methylimidazolium octyl sulfate] + CCO,surface tension liquid-gas,[1]; x1 = 0.0399,22.89 ± 0.25 mN/m
same,surface tension liquid-gas,[1]; x1 = 0.0712,23.71 ± 0.25 mN/m
same,surface tension liquid-gas,[1]; x1 = 0.098,24.48 ± 0.25 mN/m
same,surface tension liquid-gas,[1]; x1 = 0.1595,25.82 ± 0.26 mN/m
same,surface tension liquid-gas,[1]; x1 = 0.215,26.62 ± 0.27 mN/m
same,surface tension liquid-gas,[1]; x1 = 0.2445,27.01 ± 0.27 mN/m
same,surface tension liquid-gas,[1]; x1 = 0.2985,27.64 ± 0.28 mN/m
same,surface tension liquid-gas,[1]; x1 = 0.3506,28.18 ± 0.28 mN/m
same,surface tension liquid-gas,[1]; x1 = 0.4002,28.61 ± 0.29 mN/m
same,surface tension liquid-gas,[1]; x1 = 0.4582,28.92 ± 0.3 mN/m
same,surface tension liquid-gas,[1]; x1 = 0.5059,29.14 ± 0.31 mN/m
same,surface tension liquid-gas,[1]; x1 = 0.6269,29.6 ± 0.33 mN/m
same,surface tension liquid-gas,[1]; x1 = 0.7387,29.96 ± 0.35 mN/m
same,surface tension liquid-gas,[1]; x1 = 0.8317,30.5 ± 0.36 mN/m
same,surface tension liquid-gas,[1]; x1 = 0.9164,30.8 ± 0.38 mN/m
same,surface tension liquid-gas,[1]; x1 = 0.9432,30.79 ± 0.39 mN/m
same,surface tension liquid-gas,[1]; x1 = 0.953,30.82 ± 0.39 mN/m
same,surface tension liquid-gas,[1]; x1 = 1,30.91 ± 0.4 mN/m
O [water],surface tension liquid-gas,[2],71.35 ± 0.33 mN/m
CCO [ethanol] + CCOS(=O)(=O)[O-].CCn1cc[n+](C)c1,surface tension liquid-gas,[1]; x2 = 0,22.01 ± 0.24 mN/m
CCO [ethanol],surface tension liquid-gas,[2],22.01 ± 0.24 mN/m
